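Where inhibition never reached the appropriate level, the endpoint shown equals the highest concentration tested. Otherwise, values were interpolated linearly from a five-concentration, 48-hour dose response in 96-well plates. The concentration for 50% growth inhibition is given as GI50.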 The source made the active and inactive calls. Rule as the data show it: active = GI50 up to about 1.1 µM and inactive = higher.
Key:
Assay in all cases: NCI anticancer screen, dose series, 48 h
Malme-3M = tested on: Malme-3M
OVCAR-3 = tested on: OVCAR-3
SF-539 = tested on: SF-539
UO-31 = tested on: UO-31
HCT-15 = tested on: HCT-15
SK-MEL-28 = tested on: SK-MEL-28
MDA-MB-435 = tested on: MDA-MB-435
TK-10 = tested on: TK-10
RPMI-8226 = tested on: RPMI-8226
MCF7 = tested on: MCF7
HOP-92 = tested on: HOP-92
HL-60 = tested on: HL-60
NCI-H522 = tested on: NCI-H522
SNB-75 = tested on: SNB-75
MDA-MB-231 = tested on: MDA-MB-231
MOLT-4 = tested on: MOLT-4
IGROV-1 = tested on: IGROV-1
NCI-H23 = tested on: NCI-H23
HCC 2998 = tested on: HCC 2998
SK-MEL-5 = tested on: SK-MEL-5

Row | SMILES | GI50 (Malme-3M) | GI50 (OVCAR-3) | GI50 (SF-539) | GI50 (UO-31) | GI50 (HCT-15) | GI50 (SK-MEL-28) | GI50 (MDA-MB-435) | GI50 (TK-10) | GI50 (RPMI-8226) | GI50 (MCF7) | GI50 (HOP-92) | GI50 (HL-60) | GI50 (NCI-H522) | GI50 (SNB-75) | GI50 (MDA-MB-231) | GI50 (MOLT-4) | GI50 (IGROV-1) | GI50 (NCI-H23) | GI50 (HCC 2998) | GI50 (SK-MEL-5)
1 | Cc1ccc(S(=O)(=O)NC(=N)N(C)N=O)cc1 | > 100 µM (inactive) | > 100 µM (inactive) | > 100 µM (inactive) | > 100 µM (inactive) | > 100 µM | > 100 µM (inactive) | > 100 µM (inactive) | > 100 µM (inactive) | > 100 µM (inactive) | > 100 µM (inactive) | 84.1 µM (inactive) | > 100 µM (inactive) | > 100 µM (inactive) | 38.2 µM (inactive) | > 100 µM (inactive) | > 100 µM (inactive) | > 100 µM (inactive) | > 100 µM (inactive) |  | 
2 | O=C(O)CCC(NC(=O)c1ccc(Nc2nc3ccccc3nc2C(=O)O)cc1)C(=O)O (stereo unspecified) | > 100 µM (inactive) | > 100 µM (inactive) | > 100 µM (inactive) | > 100 µM (inactive) |  | > 100 µM (inactive) | > 100 µM (inactive) | > 100 µM (inactive) | > 100 µM (inactive) | > 100 µM (inactive) | > 100 µM (inactive) | > 100 µM (inactive) | > 100 µM (inactive) | > 100 µM (inactive) | > 100 µM (inactive) | > 100 µM (inactive) | > 100 µM (inactive) | > 100 µM (inactive) | > 100 µM (inactive) | > 100 µM (inactive)
3 | COc1c(-c2ccc(O)c(O)c2)oc2c(O)c(O)cc(O)c2c1=O | > 100 µM (inactive) | 56.8 µM (inactive) | > 100 µM (inactive) | > 100 µM (inactive) | 85.5 µM | > 100 µM (inactive) | 31 µM (inactive) | > 100 µM (inactive) | 31.8 µM (inactive) | 28.2 µM (inactive) | > 100 µM (inactive) | > 10 µM (inactive) | 32.1 µM (inactive) |  | > 100 µM (inactive) | 28.6 µM (inactive) | 24.7 µM (inactive) | 60.3 µM (inactive) | > 100 µM (inactive) | 45.4 µM (inactive)
4 | N=C(N)SCCON1C(=O)c2ccccc2C1=O | > 100 µM (inactive) | > 100 µM (inactive) | > 100 µM (inactive) | > 100 µM (inactive) | > 100 µM | > 100 µM (inactive) | > 100 µM (inactive) | > 100 µM (inactive) | > 100 µM (inactive) | > 100 µM (inactive) | > 100 µM (inactive) | > 100 µM (inactive) | > 100 µM (inactive) | > 100 µM (inactive) | > 100 µM (inactive) | > 100 µM (inactive) | > 100 µM (inactive) | > 100 µM (inactive) |  | > 100 µM (inactive)
5 | CC(C)C1=CC23CCC4C(C)(C(=O)O)CCCC4(C)C2CC1C1C(=O)N(c2cccc(N4C(=O)C5C6CC7C8(C)CCCC(C)(C(=O)O)C8CCC7(C=C6C(C)C)C5C4=O)c2)C(=O)C13 (stereo unspecified) | 17 µM (inactive) | 13.1 µM (inactive) | 9.08 µM (inactive) | 14.8 µM (inactive) | 11.4 µM | 9.35 µM (inactive) | 4.02 µM (inactive) | 15.9 µM (inactive) | 9.35 µM (inactive) | 4.38 µM (inactive) | 23.4 µM (inactive) | 9.79 µM (inactive) | 14.2 µM (inactive) |  | 14.8 µM (inactive) | 11.1 µM (inactive) |  | 3.4 µM (inactive) | 6.81 µM (inactive) | 15.3 µM (inactive)
6 | O=C1CSC(=S)N1c1ccco1 | > 100 µM (inactive) | 77.8 µM (inactive) | 66.7 µM (inactive) |  | 22 µM | > 100 µM (inactive) | 24.2 µM (inactive) | > 100 µM (inactive) | 59.3 µM (inactive) | 39.2 µM (inactive) | > 100 µM (inactive) | 32.6 µM (inactive) | 23.4 µM (inactive) |  | 31.8 µM (inactive) | > 100 µM (inactive) | > 100 µM (inactive) | > 100 µM (inactive) |  | 43 µM (inactive)
7 | CCCCNc1nc(NC2OCC(OC(C)=O)C(OC(C)=O)C2OC(C)=O)c(N=O)c(=O)n1C (stereo unspecified) | > 10 µM (inactive) | > 10 µM (inactive) | > 10 µM (inactive) |  | > 10 µM | > 10 µM (inactive) | > 10 µM (inactive) | > 10 µM (inactive) | > 10 µM (inactive) | > 10 µM (inactive) | > 10 µM (inactive) | > 10 µM (inactive) | > 10 µM (inactive) | > 10 µM (inactive) | > 10 µM (inactive) | > 10 µM (inactive) | > 10 µM (inactive) | > 10 µM (inactive) | > 10 µM (inactive) | > 10 µM (inactive)
8 | CC1=C(OC2OC(CO)C(O)C(O)C2O)C(=O)C[C@H]2C1=CC[C@@H]1[C@@]2(C)C(=O)C[C@]2(C)[C@@H]([C@@](C)(O)C(=O)CCC(C)(C)O)[C@H](O)C[C@@]12C (stereo partly specified) | > 100 µM (inactive) | > 100 µM (inactive) | > 100 µM (inactive) | > 100 µM (inactive) | > 100 µM | > 100 µM (inactive) | > 100 µM (inactive) | > 100 µM (inactive) |  | > 100 µM (inactive) | > 100 µM (inactive) | > 100 µM (inactive) | > 100 µM (inactive) | > 100 µM (inactive) | > 100 µM (inactive) | > 100 µM (inactive) | > 100 µM (inactive) | > 100 µM (inactive) | > 100 µM (inactive) | > 100 µM (inactive)
9 | Cc1ccc(C2NC(=N)NC3=C2CCOc2c3ccc3ccccc23)cc1 (stereo unspecified) |  | 4.92 µM (inactive) | 1.57 µM (inactive) | 42.9 µM (inactive) | 4.3 µM | 5.55 µM (inactive) | 2.27 µM (inactive) | 29.4 µM (inactive) | 4.42 µM (inactive) | 4.91 µM (inactive) | 5.66 µM (inactive) | 2.96 µM (inactive) | 33.5 µM (inactive) | 5.21 µM (inactive) | 3.75 µM (inactive) | 7.26 µM (inactive) |  | 34.9 µM (inactive) | 7.16 µM (inactive) | 12.9 µM (inactive)
10 | COc1cc(C2SC(=N)Nc3c2c(C)nn3C(=O)c2ccc(Cl)cc2)ccc1O (stereo unspecified) | > 10 µM (inactive) | > 10 µM (inactive) | > 10 µM (inactive) |  | > 10 µM | > 10 µM (inactive) | > 10 µM (inactive) | > 10 µM (inactive) | > 10 µM (inactive) | > 10 µM (inactive) | > 10 µM (inactive) | > 10 µM (inactive) | > 10 µM (inactive) | > 10 µM (inactive) | > 10 µM (inactive) | > 10 µM (inactive) | > 10 µM (inactive) | > 10 µM (inactive) | > 10 µM (inactive) | > 10 µM (inactive)
11 | Cc1ccc(C)c(N2C(=O)C(=O)c3c(C)ccc(C)c32)c1 | 20.7 µM (inactive) | 16.3 µM (inactive) | 16.7 µM (inactive) | 22.9 µM (inactive) | 14.2 µM | 33.5 µM (inactive) | 21.1 µM (inactive) | 28.8 µM (inactive) |  | 23.4 µM (inactive) | 23.6 µM (inactive) | 35.6 µM (inactive) | 15.5 µM (inactive) | 34.9 µM (inactive) | 16.9 µM (inactive) | 22.3 µM (inactive) | 15.3 µM (inactive) | 21 µM (inactive) |  | 14.8 µM (inactive)
12 | Cc1ccc(Cc2n[nH]c(=O)n2Nc2ccccc2)cc1 | > 100 µM (inactive) | > 100 µM (inactive) | > 100 µM (inactive) | 68.2 µM (inactive) | > 100 µM | 92.3 µM (inactive) | > 100 µM (inactive) | > 100 µM (inactive) | > 100 µM (inactive) | > 100 µM (inactive) | 65.2 µM (inactive) | > 100 µM (inactive) | > 100 µM (inactive) |  | > 100 µM (inactive) | > 100 µM (inactive) | > 100 µM (inactive) | > 100 µM (inactive) | > 100 µM (inactive) | > 100 µM (inactive)
13 | COC(=O)c1c(C)c2c(c(C)c1O)OC(=O)c1c(C)cc(O)c(C=O)c1O2 | > 100 µM (inactive) | > 100 µM (inactive) | > 100 µM (inactive) |  | > 100 µM | > 100 µM (inactive) | > 100 µM (inactive) | > 100 µM (inactive) | > 100 µM (inactive) | > 100 µM (inactive) | > 100 µM (inactive) | > 100 µM (inactive) | > 100 µM (inactive) |  | > 100 µM (inactive) | > 100 µM (inactive) | 69.7 µM (inactive) | > 100 µM (inactive) | > 100 µM (inactive) | > 100 µM (inactive)
14 | CN(CCNC(=O)c1n[nH]c2c1Cc1ccccc1-2)CCNC(=O)c1n[nH]c2c1Cc1ccccc1-2 | 19.2 µM (inactive) | 14.9 µM (inactive) |  | 19.4 µM (inactive) | 18.4 µM | 18.3 µM (inactive) | 17.5 µM (inactive) | 19.1 µM (inactive) |  | 19.3 µM (inactive) | 17.3 µM (inactive) | 21.1 µM (inactive) | 17.5 µM (inactive) | 12.5 µM (inactive) | 19 µM (inactive) | 19.4 µM (inactive) | 16.3 µM (inactive) | 17.2 µM (inactive) | 15.4 µM (inactive) | 16.9 µM (inactive)
15 | CC1=NN=C(N)N/C1=C\C(Sc1ccc(Cl)cc1)c1ccc(Cl)cc1Cl (stereo unspecified) | 13.4 µM (inactive) |  |  | 11.2 µM (inactive) | 10.9 µM | 21.8 µM (inactive) | 18.1 µM (inactive) | 17.5 µM (inactive) | 14.1 µM (inactive) | 3.78 µM (inactive) | 9.71 µM (inactive) | 3.74 µM (inactive) | 3.79 µM (inactive) | 13.9 µM (inactive) | 21.1 µM (inactive) | 7.29 µM (inactive) | 8.61 µM (inactive) | 13.1 µM (inactive) | 4.67 µM (inactive) | 14.8 µM (inactive)

Source: ChEMBL document CHEMBL1201862, “PubChem BioAssay data set” (2004)
